Results as given in patent publication US20050032124A1, “Identification of genotype-selective agents for treating Huntington's disease” (priority 2003, published 2005).
Converted amounts (≈) assume the structure as drawn. Read-outs that look alike come from different tables or passages of the source.

How the values were obtained:
Assay in all cases: Calcein AM viability assay, dilution-series retest
Format in all cases: cell-based, human
[1] = test system: BJ-TERT/LT/ST/RAS^V12 tumorigenic cells; settings: for IC50: Homo sapiens, 48 h, read-out: IC50, BJ-TERT/LT/ST/Ras^V12; for Tumor Selectivity: IC50 in primary BJ cells divided by IC50 in BJ-TERT/LT/ST/RAS^V12 tumorigenic cells
Experimental: Described here is work carried out to identify compounds with increased potency or activity in the presence of hTERT, LT, ST, E6, E7 or RAS^V12. […] The primary screen tested (in quadruplicate) the effect of treating tumorigenic BJ-TERT/LT/ST/RAS^V12 engineered tumorigenic cells with each compound for 48 hours at a concentration of 4 μg/mL, corresponding to 10 μM for a compound with a molecular weight of 400, which is the approximate median molecular weight of the libraries. Cell viability was measured using the dye calcein acetoxymethyl ester (calcein AM) (Wang et al., 1993, Hum. Immunol. 3 7, 264-270), which is a non-fluorescent compound that freely diffuses into cells. In live cells, calcein AM is cleaved by intracellular esterases, forming the anionic fluorescent derivative calcein, which cannot diffuse out of live cells. […] The IC50 value (concentration required to inhibit 50% of the calcein AM signal) was calculated for each compound in each cell line (Table 1).
(§1) Calcein acetoxylmethyl ester (AM) is a cell membrane-permeable, non-fluorescent compound that is cleaved by intracellular esterases to form the anionic, cell-impermeable, fluorescent compound calcein. Viable cells are stained by calcein because of the presence of intracellular esterases and because the intact plasma membrane prevents fluorescent calcein from leaking out of cells (Wang et al., 1993, supra). Cells were seeded in 384-well plates using a Zymark Sciclone ALH, treated with each compound in triplicate at 4 μg/mL in the primary screen for two days, washed with phosphate-buffered saline on a Packard Minitrak with a 384-well washer and incubated for four hours with 0.7 μg/mL calcein (Molecular Probes). Total fluorescence intensity in each well was recorded on a Packard Fusion platereader, and converted to a percent inhibition of signal by subtracting the instrument background and dividing by the average signal obtained when cells were not treated with any compound.
(§2) Replica daughter plates were prepared with a Zymark Sciclone ALH and integrated Twister II by diluting stock plates 50 fold in medium lacking serum and pen/strep to obtain a compound concentration in daughter plates of 80 μg/ml with 2% DMSO. Assay plates were prepared by seeding cells in black, clear bottom 384-well plates in columns 1-23 (6000 cells/well in 57 μl) using a syringe bulk dispenser. Columns 3-22 were treated with compounds from a daughter library plate by transferring 3 μl from the daughter library plate using 384-position fixed cannula array. The final compound concentrations in assay plates were thus 4 μg/ml. The assay plates were incubated for 48 hours at 37° C. in humidified incubator containing 5% CO2. Plate processing for the calcein AM viability assay was performed using an integrated Minitrak/Sidetrak robotic system from Packard Bioscience (Perkin Elmer). Assay plates were washed with phosphate buffered saline, and 20 μl of calcein AM (0.7 μg/ml) per well was added. Plates were incubated at room temperature for 4 hours. Fluorescence intensity was determined using a Fusion platereader with filters centered on an excitation of 485 nm and an emission of 535 nm.
Compounds to be retested were purchased from manufacturers. Stocks were prepared in DMSO at a concentration of 1 mg/ml in 384-well polypropylene plates with a 16-point, two-fold dilution dose curve of each compound in a column, in duplicates. Column 1-2 and 23-24 were left empty for controls. Daughter retest plates were prepared from stock retest plate by diluting 66.6 fold in DMEM in 384-well deep-deep well plates (4.5 μl transfer into 300 μl). Cells were seeded at a density of 6000 per well in 40 μl, and 20 μl was added from a daughter retest plate. The plates were incubated for two days at 37° C. with 5% CO2.

[2] = test system: BJ-TERT/LT/RAS^V12/ST cells; settings: Homo sapiens, 48 h, read-out: IC50, BJ-TERT/LT/Ras^V12/ST
Excerpt: (§3) Described here is work carried out to identify compounds with increased potency or activity in the presence of hTERT, LT, ST, E6, E7 or RAS^V12. Engineered cell lines with these genetic elements were used to screen […] compounds, including 20,000 compounds from a combinatorial library, 1,990 compounds from the National Cancer Institute diversity collection, and 1,540 biologically active known compounds that were selected and purchased by Applicant and formatted into a screenable collection. The primary screen tested (in quadruplicate) the effect of treating tumorigenic BJ-TERT/LT/ST/RAS^V12 engineered tumorigenic cells with each compound for 48 hours at a concentration of 4 μg/mL, corresponding to 10 μM for a compound with a molecular weight of 400, which is the approximate median molecular weight of the libraries. Cell viability was measured using the dye calcein acetoxymethyl ester (calcein AM) (Wang et al., 1993, Hum. Immunol. 3 7, 264-270), which is a non-fluorescent compound that freely diffuses into cells. In live cells, calcein AM is cleaved by intracellular esterases, forming the anionic fluorescent derivative calcein, which cannot diffuse out of live cells. […] The IC50 value (concentration required to inhibit 50% of the calcein AM signal) was calculated for each compound in each cell line (Table 1). […] Following is a more detailed analysis of these nine compounds.
as §1, §2
(§4) Compounds to be retested were purchased from manufacturers. Stocks were prepared in DMSO at a concentration of 1 mg/ml in 384-well polypropylene plates with a 16-point, two-fold dilution dose curve of each compound in a column, in duplicates. Column 1-2 and 23-24 were left empty for controls. […]

BJ-TERT/LT/ST cells = settings: Homo sapiens, 48 h, read-out: IC50, BJ-TERT/LT/ST
Excerpt: as §3, §1, §2, §4

BJ primary cells = settings: Homo sapiens, 48 h, read-out: concentration required to achieve 50% inhibition of calcein AM staining (IC50), BJ
Excerpt: as §3, §1, §2, §4

[3] = BJ-TERT/LT/ST/Ras^V12 cells, 16-point two-fold dilution, two days
[4] = BJ-TERT/LT/Ras^V12/ST cells, 16-point two-fold dilution, two days
[5] = BJ-TERT/LT/ST cells, 16-point two-fold dilution, two days
[6] = BJ cells, 16-point two-fold dilution, two days

Row | Compound | IC50 [1, 3] [mg/L] | Tumor Selectivity [1] | IC50 [2, 4] [mg/L] | IC50 (BJ-TERT/LT/ST cells; [5]) [mg/L] | IC50 (BJ primary cells; [6]) [mg/L] | IC50 [1] [mg/L] | IC50 [2] [mg/L] | IC50 (BJ-TERT/LT/ST cells) [mg/L] | IC50 (BJ primary cells; BJ) [mg/L]
1 | O=C1c2c(O)ccc(O)c2C(=O)c2c(NCCNCCO)ccc(NCCNCCO)c21 [Mitoxantrone] | 0.312 (≈ 0.702 µM) | 18 | 0.312 (≈ 0.702 µM) | 0.312 (≈ 0.702 µM) | 5 (≈ 11.2 µM) |  |  |  | 
2 | COc1cccc2c1C(=O)c1c(O)c3c(c(O)c1C2=O)C[C@@](O)(C(=O)CO)C[C@@H]3O[C@H]1C[C@H](N)[C@H](O)[C@H](C)O1 [Doxorubicin] | 1.25 (≈ 2.3 µM) | >8 | 1.25 (≈ 2.3 µM) | 0.312 (≈ 0.574 µM) | > 5 |  |  |  | 
3 | CS[C@H]1SC[C@H]2C(=O)N(C)[C@@H](C(C)C)C(=O)OC[C@@H](NC(=O)c3cnc4ccccc4n3)C(=O)N[C@@H](C)C(=O)N(C)[C@@H]1C(=O)N(C)[C@@H](C(C)C)C(=O)OC[C@@H](NC(=O)c1cnc3ccccc3n1)C(=O)N[C@@H](C)C(=O)N2C [Echinomycin] |  | >8333 |  |  |  | 0.0012 (≈ 0.00109 µM) | 0.0012 (≈ 0.00109 µM) | 0.0048 (≈ 0.00436 µM) | > 5
4 | NC(=O)c1cn([C@@H]2O[C@H](CO)[C@@H](O)[C@H]2O)c2ncnc(N)c12 [Sangivamycin] | 0.078 (≈ 0.252 µM) | 4 |  |  |  |  | 0.078 (≈ 0.252 µM) | 0.195 (≈ 0.63 µM) | 0.312 (≈ 1.01 µM)
5 | COc1ccc(C[C@H]2C(=O)N[C@@H](C)C(=O)N(C)[C@@H]3C(=O)N(C)[C@@H](Cc4ccc(O)c(c4)Oc4ccc(cc4)[C@@H]3O)C(=O)N[C@H](C)C(=O)N[C@@H](C)C(=O)N2C)cc1 [Bouvardin] | 0.078 (≈ 0.101 µM) | 4 |  |  |  |  | 0.0195 (≈ 0.0252 µM) | 0.0195 (≈ 0.0252 µM) | 0.312 (≈ 0.404 µM)
6 | COc1cccc2c1C(=O)c1c(O)c3c(c(O)c1C2=O)C[C@@](O)(C(C)=O)C[C@@H]3O[C@H]1C[C@H](N)[C@H](O)[C@H](C)O1 [Daunorubicin] | 0.312 (≈ 0.591 µM) | 16 |  |  |  |  | 0.625 (≈ 1.18 µM) | 0.312 (≈ 0.591 µM) | 5 (≈ 9.48 µM)
7 | CC[C@@]1(O)C(=O)OCc2c1cc1n(c2=O)Cc2cc3ccccc3nc2-1 [Camptothecin] | 0.0195 (≈ 0.056 µM) | >512 | 0.0195 (≈ 0.056 µM) | 1.25 (≈ 3.59 µM) | > 5 |  |  |  | 
8 | CCOc1ccccc1-n1c(C(C)N2CCN(C(=O)COc3ccc(Cl)cc3)CC2)nc2ccccc2c1=O (stereo not shown) [Erastin] | 1.25 (≈ 2.28 µM) | >8 | 1.25 (≈ 2.28 µM) | > 5 | > 5 |  |  |  | 
